Experimental data from US4788179A, “Method of treating amyotrophic lateral sclerosis with dipeptide derivatives and pharmaceutical compositions for use therein” (Gruenenthal GmbH, priority 1984, dated 1988).

Key:
[1] = tested on: amyotrophic lateral sclerosis (ALS) patients; experiment: Clinical studies: treatment of ALS patients by infusion; format: in vivo, human
[2] = tested on: amyotrophic lateral sclerosis (ALS) patients; experiment: as above; format: in vivo, human; remark: listed apart in the source
Method: The surprising activity of the compounds of formula I and of medicaments containing these ingredients in the treatment of ALS patients can be seen from the following examples of effects which resulted after administration of orotyl-L-histidyl-L-prolinamide in clinical studies. This active ingredient was filled in lyophilized form in 6 mg portions in bottles, closed with rubber stoppers, also containing 12 mg mannitol.
A patient with bulbar palsy caused by ALS was treated three times daily (at 4 hour intervals) on four consecutive days in form of short infusions (i.e. within 30 minutes) with the active ingredient. The total cumulative doses were on the first day 18 mg, on the second day 36 mg, on the third day 54 mg and on the fourth day 72 mg. The single doses for each infusion were dissolved in 100 ml of a sterile isotonic solution of sodium chloride.
Another ALS patient, suffering for eight months from ALS, was treated in the same manner as described above. […] For instance, they became able to lift their arms above horizontal, to walk without a stick, to climb stairs without support, and they became independent in activities of everyday life (such as shaving, washing, cutting with a knife, using a fork, writing, etc.).
Three other ALS patients, who had been ill for five, seven and twelve months, respectively, were each treated on four consecutive days three times daily with 24 mg of the active ingredient, dissolved in 5% aqueous glucose solution, by intravenous infusion, applied within 30 minutes. […] Again the observed side effects were insignificant and could be neglected.

[3] = Example 3: three ALS patients, 24 mg three times daily, four days, intravenous infusion

Which results are given for `NC(=O)[C@@H]1CCCN1C(=O)[C@H](Cc1c[nH]cn1)NC(=O)c1cc(=O)[nH]c(=O)[nH]1` [orotyl-L-histidyl-L-prolinamide]?
effect on hand musculature ([1]; Example 4: one ALS patient with pronounced atrophy of the hand muscles, total 18 mg on one day (infusions of 6 mg at four hour intervals)): evident effect on the hand musculature; persistence of effect after ending of medication ([1]; Example 4: total 18 mg on one day by infusion): remained for some time; improvement in bulbar symptoms ([2]; Example 1: one patient with bulbar palsy caused by ALS, short infusions (30 minutes) three times daily on four consecutive days, daily totals 18, 36, 54, 72 mg): remarkable improvements in the bulbar symptoms; persistence of improvement after medication ended ([2]; Example 1: patient with bulbar palsy, four-day infusion treatment): remained for several days; side effects of the treatment ([2]; Example 1: short infusions three times daily, four days, daily totals 18, 36, 54, 72 mg): insignificant; persistence of improvement after therapy finished ([2]; Example 2: four days therapy, same regimen as Example 1): sustained for some days; improvement in muscle weakness ([2]; Example 2: one patient suffering for eight months from ALS, same regimen as Example 1): striking improvement in muscle weakness; improvement in everyday motor abilities ([2]; Example 3: three ALS patients, 24 mg three times daily on four consecutive days, intravenous infusion in 5% glucose within 30 minutes): Remarkable improvements were noted in using buttons and zippers and in the ability to walk without assistance; clonic reflexes [2, 3]: changed to normal; observed side effects [2, 3]: insignificant; tendency to become fatigued [2, 3]: reduced
